SMILES strings stand for the structures.

A short description of the data set: method code SF-AS, from DOI: 10.1002/recl.19891080306.
A word on the logP: it is a log measure of how a compound divides between an organic and an aqueous phase. Read a low logP as lower lipophilicity. `c1ccc2c(c1)OCCOCCOc1ccccc1OCCOCCO2` came in with a logP of 2.2.

`COCCOCCOc1ccccc1OCCOCCOC` registered a logP of 0.76.

Regarding `c1ccc2c(c1)OCCOCCOCCOCCO2`, the logP was determined as 0.91.

Turning to `c1ccc2c(c1)OCCOCCOCCOc1ccccc1OCCOCCOCCO2`, the log partition coefficient (logP) stood at 2.11.

The compound `COCCOCCOc1cccc(OCCOCCOC)c1` registered a logP of 0.86.

As to `c1ccc2c(c1)OCCOCCOCCOCCOCCOCCOc1ccccc1OCCO2`, the logP was determined as 1.63.

Compound `c1ccc2c(c1)OCCOCCOCCOCCOCCOCCOCCOCCOCCO2` registered a logP of 0.03.

`COCCOCCOCCOc1ccccc1OCCOCCOCCOC` showed a logP of 0.38.

On to `c1ccc2c(c1)OCCOCCOCCOCCOCCOCCOCCOCCO2`, for which the logP came out at 0.23.

`c1ccc2c(c1)OCCOCCOCCOCCOCCOCCOCCO2` came in with a logP of 0.45.

`c1ccc2c(c1)OCCOCCOCCOCCOCCOCCO2` displayed a logP of 0.57.

On to `c1ccc2c(c1)OCCOCCOCCOCCOc1ccccc1OCCOCCOCCOCCO2`, for which the logP came out at 1.8.

Consider `COCCOCCOc1ccc(OCCOCCOC)cc1`, for which the log partition coefficient (logP) was found to be 0.76.

`c1ccc2c(c1)OCCOCCOCCOCCOCCOCCOCCOc1ccccc1OCCO2` showed a logP of 1.82.

As to `c1ccc2c(c1)OCCOCCOCCOCCOCCOCCOCCOCCOCCOCCO2`, the logP is -0.09.

In turn, `c1ccc2c(c1)OCCOCCOCCOCCOCCOCCOc1ccccc1OCCOCCOCCO2` showed a logP of 1.45.

Compound `c1ccc2c(c1)OCCOCCOCCOCCOCCO2` came in with a logP of 0.58.

`c1ccc2c(c1)OCCOCCOCCOCCOCCOCCOCCOc1ccccc1OCCOCCOCCOCCOCCOCCOCCO2` showed a logP of 0.52.
